From patent EP0074599A1, “5,6-cis-Carbapenem derivatives, their production and use” (Takeda Chemical Industries, Ltd., priority 1981, dated 1983)

Legend:
Assay in all cases: Minimal Inhibitory Concentration (MIC), agar dilution method
Format in all cases: cell-based
Parameters in all cases: unit not given here
[1] = test system: A. calcoaceticus IFO 13006; conditions: Test Microorganism (16) A. calcoaceticus IFO 13006; Trypticase soy agar, 37°C for 18 hours
Description: (§1) Minimal Inhibitory Concentration (MIC)
(§2) The Minimal Inhibitory Concentrations of the tested compounds were determined according to the agar dilution method. Namely, 1.0 ml each of aqueous solution of the tested compounds diluted by serial dilutions was poured into test petri dishes, subsequently 9.0 ml each of Trypticase soy agar was poured into the dishes and mixed. On each of the mixed agar plates, one loopful of bacterial suspension (about 10^8 CFU/ml) of test microorganism was streaked.
(§3) After the incubation at 37°C for 18 hours, the lowest concentration of the tested compounds in the medium which caused apparently complete inhibition of growth of the test microorganism was taken to be minimal inhibitory concentration.
(§4) • (1) S. aureus FDA 209P • (2) S. aureus 308 A-1 • (3) S. aureus 1840 • (4) E. coli NIHJ JC-2 • (5) E. coli 0-111 • (6) E. coli T-7 • (7) C. freundii IFO 12681 • (8) K. pneumoniae DT • (9) E. cloacae IFO 12937 • (10) S. marcescens IFO 12648 • (11) P. vulgaris IFO 3988 • (12) P.-mirabilis IFO 3849 • (13) P. morganii IFO 3168 • (14) P. aeruginosa IFO 3455 • (15) P. aeruginosa U 31 • (16) A. calcoaceticus IFO 13006

C. freundii IFO 12681 = conditions: Test Microorganism (7) C. freundii IFO 12681; Trypticase soy agar, 37°C for 18 hours
Description: as §1, §2, §3, §4

E. cloacae IFO 12937 = conditions: Test Microorganism (9) E. cloacae IFO 12937; Trypticase soy agar, 37°C for 18 hours
Description: as §1, §2, §3, §4

E. coli 0-111 = conditions: Test Microorganism (5) E. coli 0-111; Trypticase soy agar, 37°C for 18 hours
Description: as §1, §2, §3, §4

E. coli NIHJ JC-2 = conditions: Test Microorganism (4) E. coli NIHJ JC-2; Trypticase soy agar, 37°C for 18 hours
Description: as §1, §2, §3, §4

E. coli T-7 = conditions: Test Microorganism (6) E. coli T-7; Trypticase soy agar, 37°C for 18 hours
Description: as §1, §2, §3, §4

K. pneumoniae DT = conditions: Test Microorganism (8) K. pneumoniae DT; Trypticase soy agar, 37°C for 18 hours
Description: as §1, §2, §3, §4

P. aeruginosa IFO 3455 = conditions: Test Microorganism (14) P. aeruginosa IFO 3455; Trypticase soy agar, 37°C for 18 hours
Description: as §1, §2, §3, §4

P. aeruginosa U 31 = conditions: Test Microorganism (15) P. aeruginosa U 31; Trypticase soy agar, 37°C for 18 hours
Description: as §1, §2, §3, §4

P. morganii IFO 3168 = conditions: Test Microorganism (13) P. morganii IFO 3168; Trypticase soy agar, 37°C for 18 hours
Description: as §1, §2, §3, §4

P. vulgaris IFO 3988 = conditions: Test Microorganism (11) P. vulgaris IFO 3988; Trypticase soy agar, 37°C for 18 hours
Description: as §1, §2, §3, §4

P.-mirabilis IFO 3849 = conditions: Test Microorganism (12) P.-mirabilis IFO 3849; Trypticase soy agar, 37°C for 18 hours
Description: as §1, §2, §3, §4

S. aureus 1840 = conditions: Test Microorganism (3) S. aureus 1840; Trypticase soy agar, 37°C for 18 hours
Description: as §1, §2, §3, §4

S. aureus 308 A-1 = conditions: Test Microorganism (2) S. aureus 308 A-1; Trypticase soy agar, 37°C for 18 hours
Description: as §1, §2, §3, §4

S. aureus FDA 209P = conditions: Test Microorganism (1) S. aureus FDA 209P; Trypticase soy agar, 37°C for 18 hours
Description: as §1, §2, §3, §4

S. marcescens IFO 12648 = conditions: Test Microorganism (10) S. marcescens IFO 12648; Trypticase soy agar, 37°C for 18 hours
Description: as §1, §2, §3, §4

Compound | Minimal Inhibitory Concentration (MIC) [1] | Minimal Inhibitory Concentration (MIC) (C. freundii IFO 12681) | Minimal Inhibitory Concentration (MIC) (E. cloacae IFO 12937) | Minimal Inhibitory Concentration (MIC) (E. coli 0-111) | Minimal Inhibitory Concentration (MIC) (E. coli NIHJ JC-2) | Minimal Inhibitory Concentration (MIC) (E. coli T-7) | Minimal Inhibitory Concentration (MIC) (K. pneumoniae DT) | Minimal Inhibitory Concentration (MIC) (P. aeruginosa IFO 3455) | Minimal Inhibitory Concentration (MIC) (P. aeruginosa U 31) | Minimal Inhibitory Concentration (MIC) (P. morganii IFO 3168) | Minimal Inhibitory Concentration (MIC) (P. vulgaris IFO 3988) | Minimal Inhibitory Concentration (MIC) (P.-mirabilis IFO 3849) | Minimal Inhibitory Concentration (MIC) (S. aureus 1840) | Minimal Inhibitory Concentration (MIC) (S. aureus 308 A-1) | Minimal Inhibitory Concentration (MIC) (S. aureus FDA 209P) | Minimal Inhibitory Concentration (MIC) (S. marcescens IFO 12648)
CC(C)(O)[C@@H]1C(=O)N2C(C(=O)O)=C(SCCNC=N)C[C@H]12 [Example 46, 5,6-cis-3-(2-formimidoylaminoethylthio)-6-(1-hydroxy-1-methylethyl)-7-oxo-l-azabicyclo[3.2.0]hept-2-ene-2-carboxylic acid] | 6.25 | 1.56 | 6.25 | 0.39 | 0.39 | 0.78 | 6.25 | 3.13 | 6.25 | 25 | 25 | 25 | 0.78 | 0.78 | 0.39 | 3.13
CC(C)(O)[C@@H]1C(=O)N2C(C(=O)O)=C(SCCN3CCCCC3)C[C@H]12 [Example 51, 5,6-cis-3-(2-Piperidinoethylthio)-6-(1-hydroxy-1-methylethyl)-7-oxo-1-azabicyclo[3.2.0]hept-2-ene-carboxylic acid] | 25 | 3.13 | 6.25 | 0.39 | 0.78 | 0.78 | 6.25 | 50 | >100 | 25 | 25 | 25 | 0.78 | 0.39 | 0.2 | 6.25
CC(C)(O)[C@@H]1C(=O)N2C(C(=O)O)=C(SCCCN)C[C@H]12 [Example 33, 5,6-cis-3-(3-Aminopropylthio)-6-(l-hydroxy-l-methylethyl)-7-oxo-l-azabicyclo[3.2.0]hept-2-ene-2-carboxylic acid] | 3.13 | 3.13 | 6.25 | 0.39 | 0.39 | 0.78 | 6.25 | 12.5 | 50 | 50 | 50 | 50 | 0.78 | 0.78 | 0.78 | 6.25
CC(C)(O)[C@@H]1C(=O)N2C(C(=O)O)=C(SCCN3CCCC3)C[C@H]12 [Example 49] | 12.5 | 3.13 | 12.5 | 0.39 | 0.78 | 0.78 | 6.25 | 12.5 | 50 | 50 | 100 | 50 | 0.78 | 0.39 | 0.2 | 6.25
CC(C)(O)[C@@H]1C(=O)N2C(C(=O)O)=C(SCCCNC=N)C[C@H]12 [Example 47, 5,6-cis-3-(3-formimidoylaminopropylthio)-6-(1-hydroxy-1-methylethyl)-7-oxo-1-azabicyclo[3.2.0]hept-2-ene-2-carboxylic - acid] | 6.25 | 1.56 | 6.25 | 0.39 | 0.39 | 0.78 | 6.25 | 3.13 | 12.5 | 25 | 25 | 25 | 0.78 | 0.39 | 0.39 | 3.13
CC(C)(O)[C@@H]1C(=O)N2C(C(=O)O)=C(Sc3cccnn3)C[C@H]12 [Example 20, Sodium 5,6-cis-3-(3-pyridazinylthio)-6-(l-hydroxy-l-methylethyl)-7-oxo-1-azabicyclo[3.2.0]hept-2-ene-2-carboxylate] | 12.5 | 0.78 | 1.56 | 0.2 | 0.78 | 3.13 | 0.78 | 50 | >100 | 3.13 | 3.13 | 3.13 | 0.78 | 0.39 | 0.39 | 1.56
CC(C)(O)[C@@H]1C(=O)N2C(C(=O)O)=C(SCCN)C[C@H]12 [Example 2] | 3.13 | 3.13 | 12.5 | 0.39 | 1.56 | 1.56 | 12.5 | 6.25 | 25 | 50 | 50 | 50 | 1.56 | 0.78 | 0.39 | 12.5
CN(C)CCSC1=C(C(=O)O)N2C(=O)[C@@H](C(C)(C)O)[C@H]2C1 [Example 26, 5,6-cis-3-[2-(N,N-Dimethylaminoethyl)thio]-6-(1-hydroxy-1-methylethyl)-7-oxo-1-azabicyclo[3.2.0]hept-2-ene-2-carboxylic acid] | 12.5 | 3.13 | 6.25 | 0.39 | 0.78 | 0.78 | 25 | 25 | 50 | 50 | 50 | 50 | 0.78 | 0.39 | 0.39 | 6.25
